Test results taken from the supplement of paper PMC11451515.

How the values were obtained:
Details in all cases: 48 h
SEM cells [1] = assay: cell viability relative to DMSO control; higher = less cytotoxic
Procedure, shortened: (§1)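 NOMO1, SEM and P12-Ichikawa leukemia cells spent at least four passages adapting to each medium before use. They were seeded at 500 cells/well (NOMO1, SEM) or 1000 cells/well (P12-Ichikawa) in 5 μl in 1536-well plates and pin-dosed with library compounds in DMSO at 11 threefold steps from 47 μM down to 0.79 nM. After 48 h at 37°C, CellTiter-Glo One luminescence was read. Viability is reported as a percentage of the DMSO wells on each plate, with cell-free wells as background.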

P12-Ichikawa [2] = assay: AUC of viability dose-response curve (% viability x log10 dose units); higher = less sensitive
Procedure, shortened: (§2)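 Library compounds in DMSO were applied for 48 h at 37°C at 11 threefold doses (47 μM to 0.79 nM) to medium-adapted leukemia cells in 1536-well plates holding 500 or 1000 cells/well. Luminescence from CellTiter-Glo One was normalised plate by plate against DMSO and cell-free wells. Area under the curve came from trapezoidal integration of a log-logistic fit, after scaling curves that rose above full viability and discarding those that failed quality control. The fit had four parameters and used log10 doses.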

SEM cells [3] = assay: as above
Procedure, shortened: as §2

NOMO1 [4] = assay: as above
Procedure, shortened: as §2

NOMO1 [5] = assay: cell viability relative to DMSO control; higher = less cytotoxic
Procedure, shortened: as §1

P12-Ichikawa [6] = assay: as above
Procedure, shortened: as §1

Cc1ccc(C(N)=O)cc1Nc1nccc(-c2cn(C(C)C)c3cnccc23)n1
cell viability [%], SEM cells [1]
Details	HPLM + 10% dialyzed FBS	RPMI 5 mM glucose + 10% dialyzed FBS
0.000781 µM	99	109
0.00234 µM	118	128
0.00702 µM	113	124
0.0211 µM	111	113
0.0632 µM	100	113
0.19 µM	88	87.3
0.569 µM	75	64.1
1.71 µM	80	71
5.12 µM	61.4	52.5
15.4 µM	29	34.8
46.1 µM	16.7	12.7

AUC of viability dose-response curve
Details	HPLM + 10% dialyzed FBS	RPMI 5 mM glucose + 10% FBS	RPMI 5 mM glucose + 10% dialyzed FBS
P12-Ichikawa [2]	463	459	451
SEM cells [3]	356	342	326

Clc1ccc2c(N3CCN(CCCN4CCN(c5ccnc6cc(Cl)ccc56)CC4)CC3)ccnc2c1
cell viability [%], SEM cells [1]
Details	HPLM + 10% dialyzed FBS	RPMI 5 mM glucose + 10% dialyzed FBS
0.000781 µM	96.6	118
0.00234 µM	111	131
0.00702 µM	125	112
0.0211 µM	102	120
0.0632 µM	120	119
0.19 µM	120	128
0.569 µM	135	134
1.71 µM	130	146
5.12 µM	133	130
15.4 µM	102	109
46.1 µM	84.5	69.9

AUC of viability dose-response curve
Details	NOMO1 [4]	P12-Ichikawa [2]	SEM cells [3]
HPLM + 10% dialyzed FBS	469	456	464
RPMI 5 mM glucose + 10% FBS	457	448	459
RPMI 5 mM glucose + 10% dialyzed FBS	465	442	459

Cc1nc(N)sc1-c1ccnc(Nc2ccc(N3CCOCC3)cc2)n1
cell viability [%]
Details	NOMO1 [5]	P12-Ichikawa [6]	SEM cells [1]
HPLM + 10% dialyzed FBS, 0.000781 µM	95.3	97.4	88.8
HPLM + 10% dialyzed FBS, 0.00234 µM	117	100	98.7
HPLM + 10% dialyzed FBS, 0.00702 µM	111	108	102
HPLM + 10% dialyzed FBS, 0.0211 µM	120	109	102
HPLM + 10% dialyzed FBS, 0.0632 µM	110	112	107
HPLM + 10% dialyzed FBS, 0.19 µM	114	108	107
HPLM + 10% dialyzed FBS, 0.569 µM	115	111	85.5
HPLM + 10% dialyzed FBS, 1.71 µM	112	104	83.8
HPLM + 10% dialyzed FBS, 5.12 µM	87	19.4	30.5
HPLM + 10% dialyzed FBS, 15.4 µM	79.6	25	26.2
HPLM + 10% dialyzed FBS, 46.1 µM	82.8	43.8	31.3
RPMI 5 mM glucose + 10% FBS, 0.000781 µM	93.7	92.4	78.7
RPMI 5 mM glucose + 10% FBS, 0.00234 µM	91	107	111
RPMI 5 mM glucose + 10% FBS, 0.00702 µM	96.5	105	124
RPMI 5 mM glucose + 10% FBS, 0.0211 µM	95.5	107	106
RPMI 5 mM glucose + 10% FBS, 0.0632 µM	105	114	130
RPMI 5 mM glucose + 10% FBS, 0.19 µM	114	113	107
RPMI 5 mM glucose + 10% FBS, 0.569 µM	105	109	94.9
RPMI 5 mM glucose + 10% FBS, 1.71 µM	105	116	87.1
RPMI 5 mM glucose + 10% FBS, 5.12 µM	71.2	29.3	19.1
RPMI 5 mM glucose + 10% FBS, 15.4 µM	85.2	24.6	14.2
RPMI 5 mM glucose + 10% FBS, 46.1 µM	55.5	37.6	18.1
RPMI 5 mM glucose + 10% dialyzed FBS, 0.000781 µM	95.6	97.6	81
RPMI 5 mM glucose + 10% dialyzed FBS, 0.00234 µM	112	111	95.6
RPMI 5 mM glucose + 10% dialyzed FBS, 0.00702 µM	116	112	114
RPMI 5 mM glucose + 10% dialyzed FBS, 0.0211 µM	109	109	118
RPMI 5 mM glucose + 10% dialyzed FBS, 0.0632 µM	115	112	112
RPMI 5 mM glucose + 10% dialyzed FBS, 0.19 µM	106	114	102
RPMI 5 mM glucose + 10% dialyzed FBS, 0.569 µM	110	112	81
RPMI 5 mM glucose + 10% dialyzed FBS, 1.71 µM	111	110	73.7
RPMI 5 mM glucose + 10% dialyzed FBS, 5.12 µM	69.3	35.4	22.4
RPMI 5 mM glucose + 10% dialyzed FBS, 15.4 µM	72.6	42	18.4
RPMI 5 mM glucose + 10% dialyzed FBS, 46.1 µM	61.7	38.5	17.2

AUC of viability dose-response curve
Details	NOMO1 [4]	P12-Ichikawa [2]	SEM cells [3]
HPLM + 10% dialyzed FBS	447	389	382
RPMI 5 mM glucose + 10% FBS	447	392	368
RPMI 5 mM glucose + 10% dialyzed FBS	432	399	359

C=C[C@H]1CN2CCC1C[C@H]2[C@H](O)c1ccnc2ccccc12 (stereo partly specified)
SEM cells [1], RPMI 5 mM glucose + 10% dialyzed FBS
Details	cell viability [%]
0.000781 µM	123
0.00234 µM	120
0.00702 µM	122
0.0211 µM	133
0.0632 µM	126
0.19 µM	138
0.569 µM	132
1.71 µM	133
5.12 µM	108
15.4 µM	110
46.1 µM	55.1

AUC of viability dose-response curve
Details	NOMO1 [4]	P12-Ichikawa [2]	SEM cells [3]
HPLM + 10% dialyzed FBS	451	458	449
RPMI 5 mM glucose + 10% FBS	461	451	441
RPMI 5 mM glucose + 10% dialyzed FBS	433	461	452

C[C@H]1CN(C[C@@H](C)N1)C2=C(F)C3=C(C(=C2F)N)C(=O)\C(=C/N3C4CC4)C(O)=O
cell viability [%], SEM cells [1]
Details	HPLM + 10% dialyzed FBS	RPMI 5 mM glucose + 10% dialyzed FBS
0.000781 µM	108	119
0.00234 µM	112	122
0.00702 µM	130	134
0.0211 µM	122	114
0.0632 µM	109	109
0.19 µM	115	124
0.569 µM	107	118
1.71 µM	91.4	95.3
5.12 µM	95.9	96.3
15.4 µM	86.4	88.7
46.1 µM	60.1	56.9

AUC of viability dose-response curve
Details	NOMO1 [4]	P12-Ichikawa [2]	SEM cells [3]
HPLM + 10% dialyzed FBS	422	448	424
RPMI 5 mM glucose + 10% FBS	466	441	423
RPMI 5 mM glucose + 10% dialyzed FBS	446	430	425

CC(C)C[C@H](NC(=O)c1cc2ccccc2s1)C(=O)N1CCN(C(=O)[C@H](CO)N[S+](=O)([O-])c2ccc(Cl)cc2Cl)CC1
AUC of viability dose-response curve
Details	NOMO1 [4]	P12-Ichikawa [2]	SEM cells [3]
HPLM + 10% dialyzed FBS	461	462	451
RPMI 5 mM glucose + 10% FBS	468	464	453
RPMI 5 mM glucose + 10% dialyzed FBS	436	462	439

COc1cc(Oc2ccnc3cc(OC)c(OC)cc23)ccc1NC(=O)NC(C)c1nccs1 (stereo unspecified)
AUC of viability dose-response curve
Details	NOMO1 [4]	P12-Ichikawa [2]	SEM cells [3]
HPLM + 10% dialyzed FBS	444	449	453
RPMI 5 mM glucose + 10% FBS	463	446	440
RPMI 5 mM glucose + 10% dialyzed FBS	462	450	439

CC(=O)NC(C)c1ccc(Oc2ccc(OC(C)C)cc2)cc1 (stereo unspecified)
AUC of viability dose-response curve
Details	HPLM + 10% dialyzed FBS	RPMI 5 mM glucose + 10% FBS	RPMI 5 mM glucose + 10% dialyzed FBS
P12-Ichikawa [2]	454	440	450
SEM cells [3]	469	438	449

CC(C)C[C@@H](N)[C@H](O)C(=O)N[C@H](C(=O)N[C@H](C(=O)N[C@@H](CC(=O)O)C(=O)O)C(C)C)C(C)C
AUC of viability dose-response curve
Details	NOMO1 [4]	P12-Ichikawa [2]	SEM cells [3]
HPLM + 10% dialyzed FBS	455	468	465
RPMI 5 mM glucose + 10% FBS	462	433	446
RPMI 5 mM glucose + 10% dialyzed FBS	463	450	477
